Marks after values point to notes of the source that are not given here.
Columns and labels:
epileptic patients = experiment: Tolerability studies in epileptic patients; format: in vivo, human; conditions: doses up to 4000 mg/day; preliminary data
healthy volunteers = experiment: Clinical studies, tolerability in healthy volunteers; format: in vivo, human
[1] = test system: 55 different binding sites including different receptor systems, reuptake sites, second messenger systems and channel proteins; conditions: in vitro; cited from earlier work
[2] = test system: GABA levels, GABA transaminase and glutamic decarboxylase; conditions: mouse brain; cited from earlier work
[3] = test system: diabetic rats (streptozocin-induced diabetic neuropathy); experiment: Randall and Selitto test, mechanical hyperalgesia in streptozotocin diabetic rats; format: in vivo, rat
Text: In order to study the activity of levetiracetam with respect to chronic or neuropathic pain, the Applicant carried out a series of experiments based on the Randall test “A method for measurement of analgesic activity on inflamed tissue; Arch. Int. pharmacodyn., 1957, CXI, No4. P 409-419”. By virtue of this protocol, it was possible to determine the ability of levetiracetam to correct hyperalgesia secondary to induction of a neuropathic problem of metabolic origin in a rodent.
The diabetic neuropathy thereby induced allowed the correction of the hyperalgesia caused by the use of levetiracetam to be measured.
The animals used for these experiments were male Sprague-Dawley rats (Charles River, France), weighing 250-280 grams (g), which had undergone induction of diabetes one week after receipt. Male Sprague-Dawley rats (200-220 g) received one interperitoneal injection of streptozocin (75 mg/kg, i.p.) (Zanosar, Upjohn, France) dissolved in distilled water. Hyperglycaemia was confirmed one week after induction by determining the quantity of blood glucose (caudal puncture) using a Dextrostix reactive strip (Ames) read using a calorimeter (Ames Division, Miles Laboratoires, France). Animals with more than 14 millimoles (mM) were considered to be diabetic. The pain thresholds were determined 3 weeks after induction of diabetes.
This model was used in accordance with the description in COURTEIX et al., “Streptozocin-induced diabetic rats. Behavioural evidence for a model of chronic pain” Pain (1993), vol. 53, p81-88. The study was performed using the following compounds: • […]: (Laboratories UCB), dissolved in distilled water. • CARBAMAZEPINE: (Sigma), dissolved in hydroxy propel methylcellulose.
As has already been mentioned above, the test explained below was performed to stimulate a reaction in the animal with a mechanical nociceptive stimulus to a hind paw. An increasing pressure was applied using an analgesia meter (Ugo Basile, type 7200), until a cry was emitted which was considered to be the pain threshold, expressed in grams.
After determining the base thresholds, the animals received the study treatments (vehicle, levetiracetam, 17, 54, 95.2 and 120 mg/kg, carbamazepine, 10 and 30 mg/kg) administered intraperitoneally (i.p.) using the equal block method to avoid any chronobiological influence. The effects of different treatments were thus determined during the same time period. The reaction thresholds were measured 15, 30, 45, 60, 90, 120 and 180 minutes (min) after administration. All of the experiments were performed blind with 8 different animals per treatment.
The results are expressed as means±standard error of mean (S.E.M.).
The dose which could overcome 50% of the hyperalgesia induced by diabetes was calculated as the “anti-hyperalgesic dose effective 50”.
Statistical comparison was carried out by means of a two-way analysis of variance followed by Fischer's PLSD multiple comparison test to analyze the temporal effect.

[4] = test system: chloride fluxes induced by muscimol; conditions: cited from earlier work
[5] = Plasma and brain levels after oral dosing in sound-sensitive mice; conditions: male, genetically sound-sensitive, derived from a DBA strain, mouse, brain, po, 166.2 mg/kg
Protocol: Male genetically sound-sensitive mice (17-30 g; N=10), derived from a DBA strain originally selected by Dr Lehmann of the Laboratory of Acoustic Physiology (Paris) and bred in the UCB Pharma Sector husbandry unit since 1978, were submitted to the induction of audiogenic seizures. Levetiracetam (5.4 mg/kg) and sodium valproate (166.2 mg/kg) were administered orally, alone or in combination, 60 minutes before the induction of audiogenic seizures. For testing audiogenic seizure, the mice were placed in the cages, one mouse per cage, in the sound-attenuated chamber. After a period of habituation of 30 seconds, the acoustic stimulus (90 dB, 10-20 kHz) was delivered for 30 seconds via the loud speakers. During this interval, the mice were observed and the presence of the 3 phases of the seizure activity, namely wild running, clonic and tonic convulsions, was recorded.
In all animals, blood samples were collected immediately after the seizure test (I h after dosing) by cardiac puncture under light carbon dioxide anesthesia, into heparinised microtubes. […] Levetiracetam was measured in plasma and brain samples by validated gas chromatography assay with mass detection. With sodium valproate, fluorescence polarization immunoassays were used.
The mean value plus standard deviation was calculated for plasma and brain concentrations of valproate and levetiracetam, and for the brain/plasma ratio. […]

In the case of CC[C@@H](C(N)=O)N1CCCC1=O [Levetiracetam, (S)-(−)α-ethyl-2-oxo-1-pyrrolidineacetamide], the “tolerability (in words)” value (epileptic patients) is reported as “good tolerability”, the “tolerability (in words)” value (healthy volunteers; repeated doses 1500 mg/day for 14 days) is reported as “well tolerated” and the “tolerability (in words)” value (healthy volunteers; single dose) is reported as “well tolerated”. For the same compound, the “displacement of ligands specific for 55 different binding sites” value [1] was “not revealed any significant displacement”, the “effect on GABA levels and the enzymatic activities of GABA transaminase and glutamic decarboxylase” value [2] was “lack of effect” and the “anti-hyperalgesic effective dose 50” value ([3]; dose overcoming 50% of the hyperalgesia induced by diabetes, i.p.) was 35.1 ± 1.8 mg/kg. For the same compound, the “Effect on diabetic hyperalgesia (in words)” value ([3]; i.p., diabetic rats) was “a dose of 120 mg/kg of levetiracetam caused complete correction of hyperalgesia”, the vocalization threshold ([3]; levetiracetam 17 mg/kg i.p. group, before diabetes (baseline), mean (SEM)) was 282.2 (5.48) g and the vocalization threshold ([3]; levetiracetam 17 mg/kg i.p., 15 min after injection) was 211.9 (7.19)* g. The vocalization threshold ([3]; levetiracetam 17 mg/kg i.p., 30 min after injection) was 206.3 (10.12)* g, the vocalization threshold ([3]; levetiracetam 17 mg/kg i.p., 45 min after injection) was 193.1 (7.19) g and the vocalization threshold ([3]; levetiracetam 17 mg/kg i.p., 60 min after injection) was 185.6 (4.86) g. The vocalization threshold ([3]; levetiracetam 17 mg/kg i.p., 90 min after injection) was 178.1 (3.40) g, the vocalization threshold ([3]; levetiracetam 17 mg/kg i.p., 120 min after injection) was 180.0 (2.83) g and the vocalization threshold ([3]; levetiracetam 17 mg/kg i.p., 180 min after injection) was 176.3 (2.45) g. The vocalization threshold ([3]; levetiracetam 17 mg/kg i.p., after diabetes, 0 min (base threshold)) was 181.9 (3.09) g, the vocalization threshold ([3]; levetiracetam 54 mg/kg i.p. group, before diabetes (baseline), mean (SEM)) was 296.3 (10.12) g and the vocalization threshold ([3]; levetiracetam 54 mg/kg i.p., 15 min after injection) was 238.1 g. The vocalization threshold ([3]; levetiracetam 54 mg/kg i.p., 30 min after injection) was 243.8 (15.97)* g, the vocalization threshold ([3]; levetiracetam 54 mg/kg i.p., 45 min after injection) was 230.6 g and the vocalization threshold ([3]; levetiracetam 54 mg/kg i.p., 60 min after injection) was 189.4 (13.87) g. The vocalization threshold ([3]; levetiracetam 54 mg/kg i.p., 90 min after injection) was 176.3 (8.39) g, the vocalization threshold ([3]; levetiracetam 54 mg/kg i.p., 120 min after injection) was 176.3 (6.80) g and the vocalization threshold ([3]; levetiracetam 54 mg/kg i.p., 180 min after injection) was 176.3 (6.80) g. For the same compound, the vocalization threshold ([3]; levetiracetam 54 mg/kg i.p., after diabetes, 0 min (base threshold)) was 180.0 (5.30) g, the vocalization threshold ([3]; levetiracetam 95.2 mg/kg i.p. group, before diabetes (baseline), mean (SEM)) was 306.6 (11.73) g and the vocalization threshold ([3]; levetiracetam 95.2 mg/kg i.p., 15 min after injection) was 264.4 g. For the same compound, the vocalization threshold ([3]; levetiracetam 95.2 mg/kg i.p., 30 min after injection) was 283.1 (24.62)* g, the vocalization threshold ([3]; levetiracetam 95.2 mg/kg i.p., 45 min after injection) was 234.4 g and the vocalization threshold ([3]; levetiracetam 95.2 mg/kg i.p., 60 min after injection) was 180.0 (12.36) g. For the same compound, the vocalization threshold ([3]; levetiracetam 95.2 mg/kg i.p., 90 min after injection) was 180.0 (8.02) g, the vocalization threshold ([3]; levetiracetam 95.2 mg/kg i.p., 120 min after injection) was 159.4 (3.95) g and the vocalization threshold ([3]; levetiracetam 95.2 mg/kg i.p., 180 min after injection) was 163.1 (4.43) g. The vocalization threshold ([3]; levetiracetam 95.2 mg/kg i.p., after diabetes, 0 min (base threshold)) was 169.7 (6.00) g, the vocalization threshold ([3]; levetiracetam 120 mg/kg i.p. group, before diabetes (baseline), mean (SEM)) was 309.4 (15.25) g and the vocalization threshold ([3]; levetiracetam 120 mg/kg i.p., 15 min after injection) was 331.9 g. For the same compound, the vocalization threshold ([3]; levetiracetam 120 mg/kg i.p., 30 min after injection) was 315.0 (30.00)* g, the vocalization threshold ([3]; levetiracetam 120 mg/kg i.p., 45 min after injection) was 262.5 g and the vocalization threshold ([3]; levetiracetam 120 mg/kg i.p., 60 min after injection) was 213.8 (13.52)* g. The vocalization threshold ([3]; levetiracetam 120 mg/kg i.p., 90 min after injection) was 176.3 (7.36) g, the vocalization threshold ([3]; levetiracetam 120 mg/kg i.p., 120 min after injection) was 174.4 (6.30) g and the vocalization threshold ([3]; levetiracetam 120 mg/kg i.p., 180 min after injection) was 168.8 (4.70) g. For the same compound, the vocalization threshold ([3]; levetiracetam 120 mg/kg i.p., after diabetes, 0 min (base threshold)) was 161.3 (7.23) g and the “modulation of chloride fluxes induced by muscimol” value [4] was “did not modulate”.

Work on CCCC(CCC)C(=O)[O-].[Na+] [Valproate, sodium valproate] yielded a Kp at 1 h [5] of 0.13 ± 0.02.
